According to the SangsterLogP compilation:

Which logP does the source give for `COc1ccccc1NS(=O)(=O)c1ccc(N)cc1` here?
Its logP is 1.56.

For `Nc1ccc(S(=O)(=O)Nc2ncc(Br)cc2Br)cc1`, which logP is on record?
Its logP is 2.74.

Which logP does the source give for `Nc1ccc(S(=O)(=O)Nc2ccc(Cl)nc2)cc1` here?
The logP was 2.24.

With `Cc1cccnc1NS(=O)(=O)c1ccc(N)cc1` as the compound, how does the logP read?
The logP was 0.26.

With `Cc1cnc(NS(=O)(=O)c2ccc(N)cc2)nc1` as the compound, how does the logP read?
The logP was 0.17.

Which logP does the source give for `Nc1ccc(S(=O)(=O)Nc2ccccc2[N+](=O)[O-])cc1` here?
Its logP is 1.76.

Which logP does the source give for `Nc1ccc(S(=O)(=O)Nc2cccnc2Cl)cc1` here?
The logP was 1.58.

For `CN(C)c1ccc(NS(=O)(=O)c2ccc(N)cc2)nc1`, which logP is on record?
The logP was 1.23.

Which logP does the source give for `Cc1cnc(NS(=O)(=O)c2ccc(N)cc2)c(Br)c1` here?
The logP was 1.79.

Which logP does the source give for `N#Cc1cccnc1NS(=O)(=O)c1ccc(N)cc1` here?
Its logP is 0.15.

With `Nc1ccc(S(=O)(=O)Nc2ncc(Cl)cc2Cl)cc1` as the compound, how does the logP read?
Its logP is 1.97.

With `Nc1ccc(S(=O)(=O)Nc2ncccc2Br)cc1` as the compound, how does the logP read?
The logP was 1.24.

For `Cc1ccc(NS(=O)(=O)c2ccc(N)cc2)nc1`, which logP is on record?
Its logP is 0.49.

Which logP does the source give for `Nc1ccc(S(=O)(=O)Nc2ccc(Br)cn2)cc1` here?
The logP was 2.3.

For `Nc1ccc(S(=O)(=O)Nc2ccc(Cl)cn2)cc1`, which logP is on record?
The logP was 1.82.

Which logP does the source give for `Nc1ccc(S(=O)(=O)Nc2ncccc2Cl)cc1` here?
Its logP is 0.82.

With `Nc1ccc(S(=O)(=O)Nc2ccccc2Cl)cc1` as the compound, how does the logP read?
Its logP is 2.

Which logP does the source give for `Cc1cc(Br)cnc1NS(=O)(=O)c1ccc(N)cc1` here?
Its logP is 2.05.

For `Cc1ccccc1NS(=O)(=O)c1ccc(N)cc1`, which logP is on record?
Its logP is 2.03.

With `CCc1cnc(NS(=O)(=O)c2ccc(N)cc2)nc1` as the compound, how does the logP read?
The logP was 0.84.
